Assay results: a melting point compilation (Tetko et al.; mined from patent text by program, amines drawn as free bases though some values may be those of a salt)

| SMILES | melting point [°C] |
| --- | --- |
| CC1(C)CC(NC(=O)NCc2ccccc2)c2cc(C#N)ccc2O1 (stereo not drawn) | 140 to 141 |
| CNC1(c2ccccc2Cl)C(=O)N(S(=O)(=O)c2ccc(OC)cc2OC)c2c(F)cc(Cl)cc21 (stereo not drawn) | 183 to 185 |
| CCOC(=O)c1c(C(=O)OCC)c(-c2ccc(OC(C)C)c(OC(C)C)c2)c2cc3c(cc2c1O)OCO3 | 123 to 124 |
| COC(=O)c1c(Cc2ccc(S(=O)(=O)CCO)cc2)c(=O)c2ccc(Cl)cc2n1-c1ccccc1 | 172 to 174 |
| CCCCOc1ncc(C(C)=O)cc1-c1nn2c(CC)nc(C)c2c(=O)[nH]1 | 190 to 196 |
| CCc1ccc(N)c(CS(=O)c2nc3ccccc3[nH]2)c1 (stereo not drawn) | 155 to 156 |
| Cc1cc2c(C)c(O)c(O)c(C(=O)O)c2cc1Cc1ccccc1 | 179 to 180 |
| FC(F)(F)c1cc(NC(=S)N[C@@H]2CCCC[C@H]2NCc2ccccc2)cc(C(F)(F)F)c1 | 140 to 141 |
| C=CCc1c(OCC(O)COc2ccc3c(=O)cc(C(=O)O)oc3c2CC=C)ccc(C(C)=O)c1O (stereo not drawn) | 105 |
| Clc1nc(N2CCOCC2)c2ccccc2n1 | 103 to 105 |
| COC1=C(OC)C(=O)c2c(cccc2[N+](=O)[O-])C1=O | 156 to 157 |
| CS(=O)(=O)Nc1cc(C(O)CNC2CCN(c3ccc(C=C4SC(=O)NC4=O)cc3Br)CC2)ccc1O (stereo not drawn) | > 200 |
| COc1cnc(N2CCN(c3ccc([N+](=O)[O-])cc3)CC2)nc1 | 212 |
| O=C(O)CCCOc1ccc2nc3[nH]c(=O)[nH]c3cc2c1 | > 320 |
| CC(C)c1ccc2[nH]c3c(c2c1)Cc1ccccc1-3 | 193 |
| CCc1cn(C2CC(O)C(CNCC(C)Oc3ccc(Cl)cc3Cl)O2)c(=O)[nH]c1=O (mixture of isomers) | 51 to 61 |
| COc1ccc(C(=O)Cc2cc(OC)ccc2OC)cc1 | 108 to 111 |
| O=C(O)C(O)=CC(=O)c1ccccc1 | 155 to 158 |
| COc1ccc(Nc2ccc(OC)c3ccccc23)cc1C(=O)O | 153 to 154 |
| COc1cc2c(cc1Nc1ncc(Cl)c(N[C@H]3[C@@H](C(N)=O)[C@@H]4C=C[C@H]3C4)n1)CCN(CC(=O)N(C)C)CC2 | 109 to 127 |
| CN1C(=O)CN=C(c2ccccc2F)c2cc(CCN)ccc21 | 125 |
| O=c1[nH]c2ccc3ccc(-n4cccc4CN4CCN(Cc5ccccc5)CC4)cc3c2[nH]c1=O | > 250 |
| COc1cc(OC(=O)c2cccnc2)c2c(=O)c(OC)c(-c3ccc(OC(=O)c4cccnc4)c(OC)c3)oc2c1 | 212 to 214 |
| O=C(O)C1CCc2c(sc3cc(F)ccc23)C1 (stereo not drawn) | 195 to 198 |
| O=C(O)c1cc2cc(O)ccc2o1 | 223 to 228 |

| SMILES | melting point [°C] |
| --- | --- |
| Cn1nc(-c2c(F)cccc2Cl)nc1-c1ccc(Oc2ccc(C(F)(F)F)cn2)c(Cl)c1 | 116 to 117 |
| CC(=O)OC1CSC(Oc2cccc(-c3cccnc3Cl)c2)C(OC(C)=O)C1OC(C)=O (stereo not drawn) | 146 to 147 |
| Cn1c(C(=O)OCc2ccccc2)c(-c2ccc(F)cc2)c2cccnc2c1=O | 217 to 218 |
| CC1Oc2cc(F)ccc2NC1=O (stereo not drawn) | 166 to 168 |
| COC(=O)c1ccc(S(=O)(=O)N2CC[C@H](OS(C)(=O)=O)C2)n1C | 79 to 81 |
| Cc1ccc(S(=O)(=O)N[C@@H]2CCCC[C@H]2N)cc1 (relative stereo) | 93 to 95 |
| COc1ccc(Cc2cc3c(cc2OC)OCO3)cc1 | 56 to 57 |
| CCOCn1c(-c2ccc(Cl)cc2)c(C#N)c(Sc2ccc(Cl)c(Cl)c2)c1C(F)(F)F | 75 to 77 |
| COc1cccc(C(=O)Nc2nc(-c3cccc(C#N)c3)c(-c3ccncn3)s2)c1 | 255 to 256 |
| CN(CCCCCC(=O)O)c1cnc(-c2ccccc2)c(-c2ccccc2)n1 | 159 to 160 |
| COC(=O)c1cc(OC)c(Cl)c(C)c1Cl | 74 |
| COc1ccc(-n2cnc(SC)n2)cc1 | 54.9 |
| CCN1CCCC1CNC(=O)c1c(O)ccc(Br)c1OC (stereo not drawn) | 62 to 63 |
| O=C1CC(c2cccc(-n3ccnc3)c2)=Nc2cc(N3CCOC3=O)c(-c3ccc(F)cc3)cc2N1 | 230 |
| O=C(CBr)c1ccc(O)cc1 | 115 to 118 |
| CCCNC(=O)CCn1ccc(=O)c(OCc2ccccc2)c1C | 146 to 147 |
| CC(C)C1(C)N=C(c2nc3occc3cc2C(=O)O)NC1=O (stereo not drawn) | 237 to 244 |
| CC(C)(C)OC(=O)N1CCO[C@@H](c2ccc(C(N)=O)cc2)C1 | 179 |
| COc1ccc(CCNC(=O)C(=O)Nc2ccncc2)cc1OC1CCCC1 | 182 |
| CCN(CC)CC#CCCC(=O)C(O)(c1ccccc1)C1CCCCC1 (stereo not drawn) | 112 to 115 |
| Cc1cccc2c1SC1(CC1)C2=O | 74 to 75 |
| CCCC1=NN(c2ccc(C(N)=O)cc2)C(=O)C1=CNc1ccccc1CC | 170 |
| CCc1nccn1-c1ccc(NC(=O)NC)cc1 | 228 to 232 |
| O=Cc1cc2c3c(ccc4c3c1CCC4)CCC2 | 102 to 105 |
| CC(C)Cc1cccc(CCCn2c(=O)[nH]c3cc(Cl)cc(Cl)c3c2=O)c1 | 167 to 172 |

| SMILES | melting point [°C] |
| --- | --- |
| O=C(Nc1c(C(O)(C(F)(F)F)C(F)(F)F)ccc2ccccc12)c1cccc([N+](=O)[O-])c1 | 211 to 212 |
| CCCn1c(=O)c2c(nc(/C=C/c3ccc(Cl)c(Cl)c3)n2C)n(CCC)c1=O | 125 to 136 |
| CCOC(=O)CN1C(=O)[C@@H](N)[C@H](c2ccccc2)Sc2cc(Cl)ccc21 (relative stereo) | 173 to 175 |
| COC(C)(CN(c1c(C)cccc1Cl)S(C)(=O)=O)OC | 84 |
| COc1nc2ccc(Br)cc2c2c1C(=O)c1ccccc1-2 | 208 to 210 |
| c1ccc2c(c1)Sc1ccccc1N2c1ccc(-n2ccnc2-c2nccn2-c2ccc(N3c4ccccc4Sc4ccccc43)cc2)cc1 | 227 to 232 |
| CC(C)(C)NCC(O)COc1cccc(C#N)c1 (stereo not drawn) | 108 to 110 |
| CCN(CC)C(=O)n1cnc(S(=O)(=O)Cl)n1 | 44 to 47 |
| COc1ccc(CBr)c(Cl)c1Cl | 101 to 102 |
| CCOC(OCC)C(=O)OCc1c(-c2cnccn2)ssc1=O | 74 to 76 |
| CCC(=O)c1cc([C@]2(c3cccc(-c4cccnc4F)c3)N=C(N)N(C)C2=O)cn1CC | 94 to 97 |
| COC(=O)c1ccccc1-c1cc(-c2ccc(C(F)(F)F)cc2)no1 | 90.5 to 92 |
| CC(C)=CCCC(C)=CCOc1ccc(C(=O)Nc2cccnc2)cc1 | 102 to 103 |
| Cc1cc(C=O)c(OCCCCCCBr)c(C=O)c1 | 46 |
| COC(=O)c1nc(-c2cnco2)cc(N)c1Cl | 166 to 170 |
| CCOC(=O)Cc1ccc(NC(=O)/C=C/c2cnn(C)c2-c2ccc(F)cc2)cc1 | 177 to 178 |
| CC(C)OCCNS(=O)(=O)NC(=O)OCCCc1ccc(OCc2ccco2)cc1Oc1ncc(C(F)(F)F)cc1Cl | 118 to 120 |
| CCCn1c(=O)c2[nH]c(-c3ccc(OCC(=O)O)cc3)nc2n(CCC)c1=O | 214 to 216 |
| CCCN(C1CC(C)(C)Oc2ccc(O)cc21)S(=O)(=O)CC (stereo not drawn) | 173 to 175 |
| COc1c(C)cc2c(c1C)Cc1c-2[nH]c2ccc(C(C)C)cc12 | 130 |
| OCC1CC(O)C(n2cnc3cc(Cl)c(Cl)cc32)C1 (stereo not drawn) | 244 to 245 |
| O=[N+]([O-])c1cnc(Cl)nc1NCCO | 123 to 125 |
| CCCCCCCCOC(=O)c1cc(=O)c2c3c(ccc2o1)-c1ccc(Cl)cc1C(C)(C)O3 | 111 to 113 |
| Nc1cccc(CCc2n[nH]c3c2c(=O)n(-c2ccccc2)c2ncccc32)c1 | 229 to 231 |
| O=C(COC(=O)c1nocc1Br)NCCO[N+](=O)[O-] | 98 to 99 |

| SMILES | melting point [°C] |
| --- | --- |
| CCn1cc(C(=O)O)c(=O)c2cc(F)c(OC3CCN(C)CC3)cc21 | 268 to 271 |
| O=C(CCN1CCOCC1)Nc1ccc2c(=O)c3ccc(NC(=O)CCN4CCOCC4)cc3[nH]c2c1 | > 320 |
| O=C1C2CCCCC2C(=O)N1CCOC(OCCN1C(=O)C2CCCCC2C1=O)(C(=O)c1ccccc1)c1ccccc1 (stereo not drawn) | 115 to 116 |
| C[Si](C)(C)Oc1nc(-c2ccccc2)nc2c1CC(S(=O)(=O)c1ccccc1)CC2 (stereo not drawn) | > 250 |
| FC(F)(F)c1ccc(-c2cc(Oc3cccc4ccc(Cl)nc34)ncn2)cc1 | 172 to 173 |
| COC(=O)c1sc(C)c(O)c1O | 116 to 117 |
| COCCNc1nc(C)c(C)c(N2CCc3ccccc3C2C)n1 (stereo not drawn) | 64 to 67 |
| COc1cccc(S(=O)(=O)c2cccc(N)c2C#N)c1 | 186 to 191 |
| O=C(NC1CCCCC1)c1ccc(CCN2CC=C(c3c[nH]c(-c4ccc(F)cc4)c3-c3ccncc3)CC2)cc1 | 243 to 245 |
| CCOC(=O)c1cn2c(cc(Cl)c3ccc(Br)cc32)n1 | 206 to 207 |
| CCOC(=O)Cn1[nH]c(C)c(Cc2cc(Cl)cc(Cl)c2)c1=O | 183 to 184 |
| Clc1cccc(Nc2n[nH]c3ncnc(NCc4ccccc4)c23)c1 | 216 to 218 |
| CC1(C)CC(NC(=O)c2ccccc2)CC(C)(C)N1CC#N | 182 |
| CCOC(=O)C(=CN(CC)c1ccc(C=O)s1)C(=O)OCC | 45 |
| COc1ccc2[nH]c(SCc3ncnc(N4CCCC4)c3C)nc2c1 | 104 to 106 |
| CC(=O)Nc1ccn(C2OC(CO[Si](c3ccccc3)(c3ccccc3)C(C)(C)C)CC2F)c(=O)n1 (stereo not drawn) | 81 to 86 |
| Cc1ccn2c(C)c(-c3ccc4c(c3)N(C)C(=O)CS4)nc2c1 | 231 |
| COC(=O)c1nc2cc(OC)ccc2c(O)c1C(=O)OC | 202 to 204 |
| Cc1cc(C)n(C)c1C(=O)C(C#N)C(=O)Nc1ccccc1 (stereo not drawn) | 106 to 107 |
| CCCCc1nc2c(N)nc3ccc(O)cc3c2n1CCCCNC(=O)c1ccccc1 | 188 to 190 |
| CC(=O)C1=CCC2C3CCC4CC(O)CCC4(C)C3CC(O)C12C (stereo not drawn) | 203 to 205 |
| Cc1cc(Oc2ccccc2)ccc1C(=O)CBr | 60 to 61 |
| CN1CCCC1=NC(=O)Nc1cc(Cl)cc(Cl)c1 | 157 to 159 |
